Results published in ChEMBL document CHEMBL3045600, “Synthesis and Fungicidal Activities of Phenoxyphenyl Alkoxyiminoacetamide Derivatives” (J Pestic Sci, 1998).

Key:
Botrytis cinerea [1] = test: Fungicidal activity against Botryotinia fuckeliana assessed as cucumber gray mold disease control at 125 ppm foliar application 24 hr before inoculation at 22 +/- 2 degC measured after 3 days by preventive manner; assay type: functional
Podosphaera fuliginea [2] = test: Fungicidal activity against Podosphaera fuliginea assessed as cucumber powdery mildew control under greenhouse at 7.8 ppm foliar application 24 hr before inoculation on upper surface of leaf at 23 +/- 2 degC by preventive manner; assay type: functional
Colletotrichum lagenaria = test: Fungicidal activity against Colletotrichum lagenaria assessed as inhibition of mycelial growth by agar dilution method; assay type: functional, organism-based
[3] = system: Colletotrichum gloeosporioides; test: Fungicidal activity against Glomerella cingulata assessed as inhibition of mycelial growth by agar dilution method; assay type: functional, organism-based
Thanatephorus cucumeris [4] = test: Fungicidal activity against Thanatephorus cucumeris assessed as rice sheath blight disease control at 125 ppm foliar application for 24 hr before inoculation at 26 +- 2 measured after 5 days by preventive manner; assay type: functional
Alternaria alternata = test: Fungicidal activity against Alternaria alternata apple pathotype assessed as inhibition of mycelial growth by agar dilution method; assay type: functional, organism-based
Botrytis cinerea [5] = test: Fungicidal activity against Botryotinia fuckeliana assessed as cucumber gray mold disease control at 7.8 ppm foliar application 24 hr before inoculation at 22 +/- 2 degC measured after 3 days by preventive manner; assay type: functional
Cladosporium herbarum = test: Fungicidal activity against Cladosporium herbarum assessed as inhibition of mycelial growth by agar dilution method; assay type: functional, organism-based
Pythium aphanidermatum = test: Fungicidal activity against Pythium aphanidermatum assessed as inhibition of mycelial growth by agar dilution method; assay type: functional, organism-based
Thanatephorus cucumeris [6] = test: Fungicidal activity against Thanatephorus cucumeris assessed as rice sheath blight disease control at 7.8 ppm foliar application for 24 hr before inoculation at 26 +- 2 measured after 5 days by preventive manner; assay type: functional
[7] = system: Pseudoperonospora cubensis; test: Fungicidal activity against Pseudoperonospora cubensis assessed as cucumber downy mildew disease control at 7.8 ppm foliar application 24 hr before inoculation on upper surface of leaf by preventive manner; assay type: functional
[8] = system: Pseudoperonospora cubensis; test: Fungicidal activity against Pseudoperonospora cubensis assessed as cucumber downy mildew disease control at 31.3 ppm foliar application 24 hr before inoculation on upper surface of leaf by preventive manner; assay type: functional
Athelia rolfsii = test: Fungicidal activity against Athelia rolfsii assessed as inhibition of mycelial growth by agar dilution method; assay type: functional, organism-based, Agroathelia rolfsii
Podosphaera fuliginea [9] = test: Fungicidal activity against Podosphaera fuliginea assessed as cucumber powdery mildew control under greenhouse at 125 ppm foliar application 24 hr before inoculation on upper surface of leaf at 23 +/- 2 degC by preventive manner; assay type: functional
[10] = system: Pseudoperonospora cubensis; test: Fungicidal activity against Pseudoperonospora cubensis assessed as cucumber downy mildew disease control at 125 ppm foliar application 24 hr before inoculation on upper surface of leaf by preventive manner; assay type: functional
Botrytis cinerea [11] = test: Fungicidal activity against Botryotinia fuckeliana assessed as cucumber gray mold disease control at 31.3 ppm foliar application 24 hr before inoculation at 22 +/- 2 degC measured after 3 days by preventive manner; assay type: functional
Sclerotinia sclerotiorum = test: Fungicidal activity against Sclerotinia sclerotiorum assessed as inhibition of mycelial growth by agar dilution method; assay type: functional, organism-based
Podosphaera fuliginea [12] = test: Fungicidal activity against Podosphaera fuliginea assessed as cucumber powdery mildew control under greenhouse at 31.3 ppm foliar application 24 hr before inoculation on upper surface of leaf at 23 +/- 2 degC by preventive manner; assay type: functional
Pyricularia oryzae [13] = test: Fungicidal activity against Magnaporthe oryzae assessed as inhibition of mycelial growth by agar dilution method; assay type: functional, organism-based
Botrytis cinerea [14] = test: Fungicidal activity against Botryotinia fuckeliana assessed as inhibition of mycelial growth by agar dilution method; assay type: functional, organism-based
Fusarium oxysporum = test: Fungicidal activity against Fusarium oxysporum assessed as inhibition of mycelial growth by agar dilution method; assay type: functional, organism-based
Thanatephorus cucumeris [15] = test: Fungicidal activity against Thanatephorus cucumeris assessed as rice sheath blight disease control at 31.3 ppm foliar application for 24 hr before inoculation at 26 +- 2 measured after 5 days by preventive manner; assay type: functional
[16] = system: Pseudoperonospora cubensis; test: Fungicidal activity against Pseudoperonospora cubensis assessed as cucumber downy mildew disease control at 125 ppm foliar application 24 hr after inoculation on upper surface of leaf by curative manner; assay type: functional
[17] = system: Pseudoperonospora cubensis; test: Fungicidal activity against Pseudoperonospora cubensis assessed as cucumber downy mildew disease control at 31.3 ppm foliar application 24 hr after inoculation on upper surface of leaf by curative manner; assay type: functional
Botrytis cinerea [18] = test: Fungicidal activity against Botryotinia fuckeliana assessed as cucumber gray mold disease control at 2 ppm foliar application 24 hr after inoculation at 22 +/- 2 degC measured after 3 days by curative manner; assay type: functional
Podosphaera fuliginea [19] = test: Fungicidal activity against Podosphaera fuliginea assessed as cucumber powdery mildew control under greenhouse at 7.8 ppm foliar application 24 hr after inoculation on upper surface of leaf at 23 +/- 2 degC by curative manner; assay type: functional
[20] = system: Pseudoperonospora cubensis; test: Fungicidal activity against Pseudoperonospora cubensis assessed as cucumber downy mildew disease control at 7.8 ppm foliar application 24 hr after inoculation on upper surface of leaf by curative manner; assay type: functional
Botrytis cinerea [21] = test: Fungicidal activity against Botryotinia fuckeliana assessed as cucumber gray mold disease control at 2 ppm foliar application 24 hr before inoculation at 22 +/- 2 degC measured after 3 days by preventive manner; assay type: functional
Botrytis cinerea [22] = test: Fungicidal activity against Botryotinia fuckeliana assessed as cucumber gray mold disease control at 7.8 ppm foliar application 24 hr after inoculation at 22 +/- 2 degC measured after 3 days by curative manner; assay type: functional
Botrytis cinerea [23] = test: Fungicidal activity against Botryotinia fuckeliana assessed as cucumber gray mold disease control at 125 ppm foliar application 24 hr after inoculation at 22 +/- 2 degC measured after 3 days by curative manner; assay type: functional
[24] = system: Pseudoperonospora cubensis; test: Fungicidal activity against Pseudoperonospora cubensis assessed as cucumber downy mildew disease control at 2 ppm foliar application 24 hr after inoculation on upper surface of leaf by curative manner; assay type: functional
Podosphaera fuliginea [25] = test: Fungicidal activity against Podosphaera fuliginea assessed as cucumber powdery mildew control under greenhouse at 2 ppm foliar application 24 hr before inoculation on upper surface of leaf at 23 +/- 2 degC by preventive manner; assay type: functional
Thanatephorus cucumeris [26] = test: Fungicidal activity against Thanatephorus cucumeris assessed as rice sheath blight disease control at 2 ppm foliar application for 24 hr before inoculation at 26 +- 2 measured after 5 days by preventive manner; assay type: functional
Podosphaera fuliginea [27] = test: Fungicidal activity against Podosphaera fuliginea assessed as cucumber powdery mildew control under greenhouse at 125 ppm foliar application 24 hr after inoculation on upper surface of leaf at 23 +/- 2 degC by curative manner; assay type: functional
Botrytis cinerea [28] = test: Fungicidal activity against Botryotinia fuckeliana assessed as cucumber gray mold disease control at 31.3 ppm foliar application 24 hr after inoculation at 22 +/- 2 degC measured after 3 days by curative manner; assay type: functional
[29] = system: Pseudoperonospora cubensis; test: Fungicidal activity against Pseudoperonospora cubensis assessed as cucumber downy mildew disease control at 2 ppm foliar application 24 hr before inoculation on upper surface of leaf by preventive manner; assay type: functional
Podosphaera fuliginea [30] = test: Fungicidal activity against Podosphaera fuliginea assessed as cucumber powdery mildew control under greenhouse at 31.3 ppm foliar application 24 hr after inoculation on upper surface of leaf at 23 +/- 2 degC by curative manner; assay type: functional
Podosphaera fuliginea [31] = test: Fungicidal activity against Podosphaera fuliginea assessed as cucumber powdery mildew control under greenhouse at 2 ppm foliar application 24 hr after inoculation on upper surface of leaf at 23 +/- 2 degC by curative manner; assay type: functional
Pyricularia oryzae [32] = test: Fungicidal activity against Magnaporthe oryzae assessed as rice blast disease control at 0.16 ppm submerged application measured after 7 days; assay type: functional
Pyricularia oryzae [33] = test: Fungicidal activity against Magnaporthe oryzae assessed as rice blast disease control at 0.63 ppm submerged application measured after 7 days; assay type: functional
Pyricularia oryzae [34] = test: Fungicidal activity against Magnaporthe oryzae assessed as rice blast disease control at 10 ppm submerged application measured after 7 days; assay type: functional
Pyricularia oryzae [35] = test: Fungicidal activity against Magnaporthe oryzae assessed as rice blast disease control at 2.5 ppm submerged application measured after 7 days; assay type: functional

## CNC(=O)/C(=N\OC)c1ccccc1Oc1ccccc1
Botrytis cinerea [1]
  Activity: 44%
Podosphaera fuliginea [2]
  Activity: 40%
Colletotrichum lagenaria
  EC50: 61.8 ppm
[3]
  EC50: 16.2 ppm
Thanatephorus cucumeris [4]
  Activity: 50%
Alternaria alternata
  EC50: > 64 ppm
Botrytis cinerea [5]
  Activity: 18%
Cladosporium herbarum
  EC50: 41.8 ppm
Pythium aphanidermatum
  EC50: 28.1 ppm
Thanatephorus cucumeris [6]
  Activity: 0%
[7]
  Activity: 0%
[8]
  Activity: 0%
Athelia rolfsii
  EC50: 41.1 ppm
Podosphaera fuliginea [9]
  Activity: 100%
[10]
  Activity: 70%
Botrytis cinerea [11]
  Activity: 36%
Sclerotinia sclerotiorum
  EC50: 11.9 ppm
Podosphaera fuliginea [12]
  Activity: 100%
Pyricularia oryzae [13]
  EC50: 49.1 ppm
Botrytis cinerea [14]
  EC50: 1.7 ppm
Fusarium oxysporum
  EC50: 58.1 ppm
Thanatephorus cucumeris [15]
  Activity: 0%

## CNC(=O)/C(=N/OC)c1ccccc1Oc1ccccc1[N+](=O)[O-]
[16]
  Activity: <50%
Botrytis cinerea [1]
  Activity: <70%
[17]
  Activity: <50%
Botrytis cinerea [18]
  Activity: <50%
Podosphaera fuliginea [2]
  Activity: <70%
Podosphaera fuliginea [19]
  Activity: <50%
[20]
  Activity: <50%
Thanatephorus cucumeris [4]
  Activity: <70%
Botrytis cinerea [5]
  Activity: <70%
Botrytis cinerea [21]
  Activity: <70%
Botrytis cinerea [22]
  Activity: <50%
Thanatephorus cucumeris [6]
  Activity: <70%
Botrytis cinerea [23]
  Activity: <50%
[7]
  Activity: <70%
[8]
  Activity: <70%
Podosphaera fuliginea [9]
  Activity: <70%
[24]
  Activity: <50%
[10]
  Activity: <70%
Podosphaera fuliginea [25]
  Activity: <70%
Botrytis cinerea [11]
  Activity: <70%
Thanatephorus cucumeris [26]
  Activity: <70%
Podosphaera fuliginea [12]
  Activity: <70%
Podosphaera fuliginea [27]
  Activity: <50%
Thanatephorus cucumeris [15]
  Activity: <70%
Botrytis cinerea [28]
  Activity: <50%
[29]
  Activity: <70%
Podosphaera fuliginea [30]
  Activity: <50%
Podosphaera fuliginea [31]
  Activity: <50%

## CNC(=O)/C(=N/OC)c1ccccc1Oc1ccccc1 [METOMINOSTROBIN]
[16]
  Activity: 50%
Botrytis cinerea [1]
  Activity: 95%
[17]
  Activity: 50%
Botrytis cinerea [18]
  Activity: 50%
Pyricularia oryzae [32]
  Activity: 50%
Podosphaera fuliginea [2]
  Activity: 70%
Podosphaera fuliginea [19]
  Activity: 50%
[20]
  Activity: 50%
Pyricularia oryzae [33]
  Activity: 50%
Colletotrichum lagenaria
  EC50: 4.7 ppm
[3]
  EC50: 7.2 ppm
Thanatephorus cucumeris [4]
  Activity: 70%
Alternaria alternata
  EC50: 20.8 ppm
Botrytis cinerea [5]
  Activity: 73%
Botrytis cinerea [22]
  Activity: 50%
Cladosporium herbarum
  EC50: 4.5 ppm
Pythium aphanidermatum
  EC50: 2.8 ppm
Thanatephorus cucumeris [6]
  Activity: 50%
Botrytis cinerea [23]
  Activity: 50%
[7]
  Activity: 30%
Pyricularia oryzae [34]
  Activity: 50%
[8]
  Activity: 100%
Athelia rolfsii
  EC50: 2.5 ppm
Podosphaera fuliginea [9]
  Activity: 100%
[24]
  Activity: 50%
[10]
  Activity: 100%
Botrytis cinerea [11]
  Activity: 92%
Sclerotinia sclerotiorum
  EC50: 2 ppm
Podosphaera fuliginea [12]
  Activity: 100%
Pyricularia oryzae [13]
  EC50: 5.6 ppm
Botrytis cinerea [14]
  EC50: 1.1 ppm
Fusarium oxysporum
  EC50: 6.2 ppm
Podosphaera fuliginea [27]
  Activity: 50%
Thanatephorus cucumeris [15]
  Activity: 70%
Botrytis cinerea [28]
  Activity: 50%
Pyricularia oryzae [35]
  Activity: 50%
Podosphaera fuliginea [30]
  Activity: 50%
Podosphaera fuliginea [31]
  Activity: 50%
